Source: PubChem BioAssay AID1259420 (Broad Institute, 2018)
Inconclusive results are not listed.

System: Toxoplasma gondii growth in host cells, no IFN-gamma
Assay: T. gondii intracellular growth, IFN-gamma absent, dose response, cell-based (AID 1259420);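 further: host cells were HeLa; final incubation lasted 72 hours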

**Q.** `N#Cc1cccc(-c2ccc3c(c2)[C@@H]2[C@@H](CCN2S(=O)(=O)c2ccc(F)cc2)[C@H](CO)N3)c1` was tested. Which AC50 did it give?
**A.** 10.1 µM
